These results are taken from US6800653B2, “Epothilone derivatives” (priority 2001, dated 2004).

Read-outs that look alike come from different tables or passages of the source. Some results are limits rather than exact numbers.

For assay [1], the system named is HCT-116 human colon carcinoma cells. Description: Cytotoxicity (in vitro) by MTS assay. Format: cell-based. To be noted: read-out: HTC-116 assay IC50. As for the experimental part:
Cytoxicity was assessed in HCT-116 human colon carcinoma cells by MTS (3-(4,5-dimethylthiazol-2-yl)-5-(3-carboxymethoxyphenyl)-2-(4-sulphenyl)-2H-tetrazolium, inner salt) assay as reported in T. L. Riss, et. al., “Comparison of MTT, XTT, and a novel tetrazolium compound MTS for in vitro proliferation and chemosensitivity assays.,” Mol. Biol. Cell 3 (Suppl.): 184a, 1992. Cells were plated at 4,000 cell/well in 96 well microtiter plates and 24 hours later drugs were added and serial diluted. The cells were incubated at 37° form 72 hours at which time the tetrazolium dye, MTS at 333 μg/ml (final concentration), in combination with the electron coupling agent phenazine methosulfate at 25 μM (final concentration) was added. A dehydrogenase enzyme in live cells reduces the MTS to a form that absorbs light at […] which can be quantitated spectrophotometrically. The greater the absorbance the greater the number of live cells. The results are expressed as an IC50, which is the drug concentration required to inhibit cell proliferation (i.e. absorbance at 450 nm) to 50% of that of untreated control cells.
In general terms: Tetrazolium assays rely on reduction of a dye to a coloured formazan, in cell work by metabolically active cells.

Another assay concerns calf brain tubulin. Description: In vitro tubulin polymerization. Format: biochemical. To be noted: interpolated concentration inducing an initial slope of 0.01 OD/minute; 1.0 mg/ml microtubule protein, 37°; read-out: Tubulin assay EC0.01. As for the experimental part:
In vitro Tubulin Polymerization
Twice cycled (2×) calf brain tubulin was prepared following the procedure of Williams and Lee (see Williams, R. C., Jr., and Lee, J. C. Preparation of tubulin from brain. Methods in Enzymology 85, Pt. D: 376-385, 1982) and stored in liquid nitrogen before use. Quantification of tubulin polymerization potency is accomplished following a modified procedure of Swindell, et al., (see Swindell, C. S., Krauss, N. E., Horwitz, S. B., and Ringel, L. Biologically active taxol analogues with deleted A-ring side chain substituents and variable C-2′ configurations. J. Med. Chem. 34: 1176-1184, 1991). These modifications, in part, result in the expression of tubulin polymerization potency as an effective concentration for any given compound. For this method, different concentrations of compound in polymerization buffer (0.1M MES, 1 mM EGTA, 0.5 mM MgCl2, pH 6.6) are added to tubulin in polymerization buffer at 37° in microcuvette wells of a Beckman (Beckman Instruments) Model DU 7400 UV spectrophotometer. A final microtubule protein concentration of 1.0 mg/ml and compound concentration of generally 2.5, 5.0, and 10 μM are used. Initial slopes of OD change measured every 10 seconds were calculated by the program accompanying the instrument after initial and final times of the linear region encompassing at least 3 time points were manually defined. Under these conditions linear variances were generally <10^−6, slopes ranged from 0.03 to 0.002 absorbance unit/minute, and maximum absorbance was 0.15 absorbance units. Effective concentration (EC0.01) is defined as the interpolated concentration capable of inducing an initial slope of 0.01 OD/minute rate and is calculated using the formula: EC0.01=concentration/slope. EC0.01 values are expressed as the mean with standard deviation obtained from 3 different concentrations. EC0.01 values for the compounds in this invention fall in the range 0.01-1000 μM.

Where [2] appears, read: HCT-116, 72 hours incubation, MTS.

With `C/C(=C\c1csc(C)n1)[C@@H]1C[C@@H]2NC2CCCC(C)[C@H](O)[C@@H](C)C(=O)C(C)(C)[C@@H](O)CC(=O)O1` (relative stereo) [Example 1, [1S-[1R*,3R*(E),7R*,10S*,11R*,12R*,16S*]]-7,11-Dihydroxy-8,8,10,12-tetramethyl-3-[1-methyl-2-(2-methyl-4-thiazolyl)ethenyl]-4-oxa-17-azabicyclo[14.1.0]heptadecane-5,9-dione.], the concentration for half-maximal inhibition (IC50) in assay [1] (HCT-116, 72 h) was 0.0027 µM. For the same compound, the EC50 in the assay with calf brain tubulin worked out at 14 µM.
With `C/C(=C\c1csc(C)n1)[C@@H]1C[C@H]2C(CCCC(C)[C@H](O)[C@@H](C)C(=O)C(C)(C)[C@@H](O)CC(=O)O1)N2C(=O)CN(C)C` (relative stereo) [Example 4, [1S-[1R*,3R*(E),7R*,10S*,11R*,12R*,16S*]]-17-[Dimethylamino)acetyl]-7,11-dihydroxy-8,8,10,12-tetramethyl-3-[1-methyl-2(2-methyl-4-thiazolyl)ethenyl]-4-oxa-17-azabicyclo[14.1.0]heptadecane-5,9-dione.], the EC50 in the assay on calf brain tubulin is greater than 1000 µM.
As for `C/C(=C\c1csc(C)n1)C1CC2[C@@H](CCC[C@H](C)[C@H](O)[C@@H](C)C(=O)C(C)(C)[C@@H](O)CC(=O)O1)N2C(=O)CC(C)C` (relative stereo) [Example 5, [1S-[1R*,3R*(E),7R*,10S*,11R*,12R*,16S*]]-7,11-Dihydroxy-8,8,10,12-tetramethyl-3-[1-methyl-2-(2-methyl-4-thiazolyl)ethenyl]-17-(3-methyl-1-oxobutyl)-4-oxa-17-azabicyclo[14.1.0]heptadecane-5,9-dione.], in assay [1] (setting [2]), the IC50 came to 0.041 µM. For the same compound, the EC50 in the assay on calf brain tubulin is 3.5 µM.
For `C/C(=C\c1csc(C)n1)C1CC2[C@@H](CCC[C@H](C)[C@H](O)[C@@H](C)C(=O)C(C)(C)[C@@H](O)CC(=O)O1)[N@@]2S(C)(=O)=O` (relative stereo) [Example 6, [1S-[1R*,3R*(E), 7R*,10S,11R*,12R*,16S*]]-17-N-Methylsulfonyl-7,11-dihydroxy-8,8,10,12-tetramethyl-3-[1-methyl-2-(2-methyl-4-thiazolyl)ethenyl]-4-oxa-17-azabicyclo[14.1.0]heptadecane-5,9-dione.] the same measures were 0.0021 µM and 14 µM.
Consider `CCNC(=O)N1C2CC(/C(C)=C/c3csc(C)n3)OC(=O)C[C@H](O)C(C)(C)C(=O)[C@H](C)[C@@H](O)[C@@H](C)CCC[C@H]21` (relative stereo) [Example 7, 1S-[1R*,3R*(E),7R*,10S,11R*,12R*,16S*]]-N-Ethyl-7,11-dihydroxy-8,8,10,12-tetramethyl-3-[1-methyl-2-(2-methyl-4-thiazolyl)ethenyl]-4-oxa-17-azabicyclo[14.1.0]heptadecane-5,9-dione-17-carboxamide.], for which the EC50 in the assay on calf brain tubulin was greater than 1000 µM.
On to `C/C(=C\c1csc(C)n1)C1CC2[C@@H](CCC[C@H](C)[C@H](O)[C@@H](C)C(=O)C(C)(C)[C@@H](O)CC(=O)O1)[N@@]2C` (relative stereo) [Example 8, [1S-[1R*,3R*(E),7R*,10S*,11R*,12R*,16S*]]-7,11-Dihydroxy-8,8,10,12,17-pentamethyl-3-[1-methyl-2-(2-methyl-4-thiazolyl)ethenyl]-4-oxa-17-azabicyclo[14.1.0]heptadecane-5,9-dione], for which, in assay [1] (HCT-116, 72 h), the IC50 is 0.00013 µM. The EC50 in the assay with calf brain tubulin is 2.6 µM.
For `C/C(=C\c1csc(C)n1)[C@@H]1C[C@H]2C(CCCC(C)[C@H](O)[C@@H](C)C(=O)C(C)(C)[C@@H](O)CC(=O)O1)[N@@]2Cc1ccccc1` (relative stereo) [Example 15, [1S-[1R*,3R*(E),7R*,10S,11R*,12R*,16S*]]-17-Benzyl-7,11-dihydroxy-8,8,10,12-tetramethyl-3-[1-methyl-2-(2-methyl-4-thiazolyl)ethenyl]-4-oxa-17-azabicyclo[14.1.0]heptadecane-5,9-dione.], the half-inhibitory concentration (IC50) in assay [1] (HCT-116, 72 h) is 0.023 µM. Moreover, the EC50 in the assay on calf brain tubulin came out at 35 µM.
Consider `C/C(=C\c1csc(C)n1)[C@@H]1C[C@H]2C(CCCC(C)[C@H](O)[C@@H](C)C(=O)C(C)(C)[C@@H](O)CC(=O)O1)[N@]2S(N)(=O)=O` (relative stereo) [Example 16, [1S-[1R*,3R*(E),7R*,10S,11R*,12R*,16S*]]-17-Sulfonylurea-7,11-dihydroxy-8,8,10,12-tetramethyl-3-[1-methyl-2-(2-methyl-4-thiazolyl)ethenyl]-4-oxa-17-azabicyclo[14.1.0]heptadecane-5,9-dione.], for which, in assay [1] (setting [2]), the half-inhibitory concentration (IC50) came to 0.036 µM. Moreover, the EC50 with calf brain tubulin is 28 µM.
Turning to `CNS(=O)(=O)[N@@]1C2CCCC(C)[C@H](O)[C@@H](C)C(=O)C(C)(C)[C@@H](O)CC(=O)O[C@H](/C(C)=C/c3csc(C)n3)C[C@@H]21` (relative stereo) [Example 17], in assay [1] (setting [2]), the IC50 was found to be 0.0078 µM. Moreover, in the assay on calf brain tubulin, the EC50 is 2.3 µM.
Take `C/C(=C\c1csc(C)n1)C1CC2[C@@H](CCC[C@H](C)[C@H](O)[C@@H](C)C(=O)C(C)(C)[C@@H](O)CC(=O)O1)[N@@]2S(=O)(=O)N(C)C` (relative stereo) [Example 18, [1S-[1R*,3R*(E),7R*,10S*,11R*,12R*,16S*]]-7,11-Dihydroxy-N,N,8,8,10,12-hexamethyl-3-[1-methyl-2-(2-methyl-4-thiazolyl)ethenyl]-5,9-dioxo-4-oxa-17-azabicyclo[14.1.0]heptadecane-17-sulfonamide.]: the IC50 in assay [1] (setting [2]) was found to be 0.0002 µM. In the assay on calf brain tubulin, the EC50 was found to be 1 µM.
For `C/C(=C\c1csc(C)n1)C1CC2[C@@H](CCC[C@H](C)[C@H](O)[C@@H](C)C(=O)C(C)(C)[C@@H](O)CC(=O)O1)[N@@]2S(=O)(=O)N1CCOCC1` (relative stereo) [Example 19, [1S-[1R*,3R*(E),7R*,10S,11R*,12R*,16S*]]-17-Morpholinosulfonyl-7,11-dihydroxy-8,8,10,12-tetramethyl-3-[1-methyl-2-(2-methyl-4-thiazolyl)ethenyl]-4-oxa-17-azabicyclo[14.1.0]heptadecane-5,9-dione.], in that order: 0.16 µM and 460 µM.
Regarding `C/C(=C\c1csc(C)n1)C1CC2[C@@H](CCC[C@H](C)[C@H](O)[C@@H](C)C(=O)C(C)(C)[C@@H](O)CC(=O)O1)N2C(=O)Oc1ccccc1` (relative stereo) [Example 20, [1S-[1R*,3R*(E),7R*,10S,11R*,12R*,16S*]]-7,11-dihydroxy-8,8,10,12-tetramethyl-3-[1-methyl-2-(2-methyl-4-thiazolyl)ethenyl]-4-oxa-17-azabicyclo[14.1.0]heptadecane-5,9-dione-17-carboxylic acid phenyl ester.], the half-maximal inhibitory concentration (IC50) in assay [1] (setting [2]) is 0.0018 µM. Further, in the assay on calf brain tubulin, the EC50 was found to be 1.1 µM.
In the case of `CC(=Cc1csc(C)n1)C1CC2OC2CCCC(C)C(O)C(C)C(=O)C(C)(C)C(O)CC(=O)O1` (centres unmarked) [Epothilone A, reference compound], the IC50 in assay [1] (setting [2]) was found to be 0.0044 µM.
In the case of `CC(=Cc1csc(C)n1)C1CC2OC2(C)CCCC(C)C(O)C(C)C(=O)C(C)(C)C(O)CC(=O)O1` (centres unmarked) [Epothilone B, reference compound], the IC50 in assay [1] (HCT-116, 72 h) amounted to 0.0008 µM.
`CCCS(=O)(=O)N1C2CCCC(C)C(O)C(C)C(=O)C(C)(C)C(O)CC(=O)OC(C(C)=Cc3csc(C)n3)CC21` [Example 25, [1S-[1R*,3R*(E),7R*,10S,11R*,12R*,16S*]]-17-N-n-Propylsulfonyl-7,11-dihydroxy-8,8,10,12-tetramethyl-3-[1-methyl-2-(2-methyl-4-thiazolyl)ethenyl]-4-oxa-17-azabicyclo[14.1.0]heptadecane-5,9-dione.]: the IC50 in assay [1] (setting [2]) was 0.094 µM.
`CC(=Cc1csc(C)n1)C1CC2C(CCCC(C)C(O)C(C)C(=O)C(C)(C)C(O)CC(=O)O1)N2S(=O)(=O)c1cccs1` (stereo not drawn) [Example 26, [1S-[1R*,3R*(E),7R*,10S*,11R*,12R*,16S*]]-17-(2-thienyl)sulfonyl-7,11-dihydroxy-8,8,10,12-tetramethyl-3-[1-methyl-2-(2-methyl-4-thiazolyl)ethenyl]-4-oxa-17-azabicyclo[14.1.0]heptadecane-5,9-dione.]: in assay [1] (setting [2]), the half-maximal inhibitory concentration (IC50) is 0.03 µM.

Broadly, the IC50 is the midpoint of a concentration-inhibition curve.
